Legend:
[1] = biological target: T1, Gastrin/cholecystokinin type B receptor (Homo sapiens, UniProt P32239)
T1 sequence (P32239 whole entry): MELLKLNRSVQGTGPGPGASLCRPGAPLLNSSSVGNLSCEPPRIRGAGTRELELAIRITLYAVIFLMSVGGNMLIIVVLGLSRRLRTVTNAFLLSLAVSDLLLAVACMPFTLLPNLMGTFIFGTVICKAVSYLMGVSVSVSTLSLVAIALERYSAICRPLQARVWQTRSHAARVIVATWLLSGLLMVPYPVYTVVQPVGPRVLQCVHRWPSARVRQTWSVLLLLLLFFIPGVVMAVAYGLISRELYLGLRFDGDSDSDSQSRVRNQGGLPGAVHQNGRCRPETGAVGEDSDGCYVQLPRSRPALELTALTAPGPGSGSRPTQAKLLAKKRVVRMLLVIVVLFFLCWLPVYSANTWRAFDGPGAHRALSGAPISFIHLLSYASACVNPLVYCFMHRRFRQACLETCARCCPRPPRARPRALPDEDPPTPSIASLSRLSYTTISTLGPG

Cannabinoid receptor 1 = Cannabinoid receptor 1 (Homo sapiens, UniProt P21554)
Estrogen receptor = biological target: T2, Estrogen receptor (Homo sapiens, UniProt P03372)
T2 sequence (P03372 whole entry): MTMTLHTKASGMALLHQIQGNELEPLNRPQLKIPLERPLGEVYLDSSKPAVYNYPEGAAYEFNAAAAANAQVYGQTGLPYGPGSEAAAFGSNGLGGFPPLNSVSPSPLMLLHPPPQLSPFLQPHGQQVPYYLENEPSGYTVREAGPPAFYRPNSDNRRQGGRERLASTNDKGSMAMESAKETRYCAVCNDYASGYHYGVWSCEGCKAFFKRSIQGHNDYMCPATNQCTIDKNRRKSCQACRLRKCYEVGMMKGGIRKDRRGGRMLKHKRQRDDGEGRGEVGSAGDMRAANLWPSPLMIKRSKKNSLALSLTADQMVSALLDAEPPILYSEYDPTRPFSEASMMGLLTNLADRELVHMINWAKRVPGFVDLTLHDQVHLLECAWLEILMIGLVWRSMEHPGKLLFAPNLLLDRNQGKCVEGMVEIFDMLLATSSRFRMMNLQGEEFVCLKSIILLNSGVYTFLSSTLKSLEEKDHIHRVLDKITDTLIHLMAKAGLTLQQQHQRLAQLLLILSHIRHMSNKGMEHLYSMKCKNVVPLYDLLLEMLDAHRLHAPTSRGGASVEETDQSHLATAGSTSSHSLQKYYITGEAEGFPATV

[2] = biological target: Sodium-dependent noradrenaline transporter (Homo sapiens, UniProt P23975)
[3] = biological target: 3',5'-cyclic-AMP phosphodiesterase 4A (Homo sapiens, UniProt P27815); format: functional
[4] = biological target: cGMP-inhibited 3',5'-cyclic phosphodiesterase 3A (Homo sapiens, UniProt Q14432); format: functional
Progesterone receptor = biological target: T3, Progesterone receptor (Homo sapiens, UniProt P06401)
T3 sequence (P06401 whole entry): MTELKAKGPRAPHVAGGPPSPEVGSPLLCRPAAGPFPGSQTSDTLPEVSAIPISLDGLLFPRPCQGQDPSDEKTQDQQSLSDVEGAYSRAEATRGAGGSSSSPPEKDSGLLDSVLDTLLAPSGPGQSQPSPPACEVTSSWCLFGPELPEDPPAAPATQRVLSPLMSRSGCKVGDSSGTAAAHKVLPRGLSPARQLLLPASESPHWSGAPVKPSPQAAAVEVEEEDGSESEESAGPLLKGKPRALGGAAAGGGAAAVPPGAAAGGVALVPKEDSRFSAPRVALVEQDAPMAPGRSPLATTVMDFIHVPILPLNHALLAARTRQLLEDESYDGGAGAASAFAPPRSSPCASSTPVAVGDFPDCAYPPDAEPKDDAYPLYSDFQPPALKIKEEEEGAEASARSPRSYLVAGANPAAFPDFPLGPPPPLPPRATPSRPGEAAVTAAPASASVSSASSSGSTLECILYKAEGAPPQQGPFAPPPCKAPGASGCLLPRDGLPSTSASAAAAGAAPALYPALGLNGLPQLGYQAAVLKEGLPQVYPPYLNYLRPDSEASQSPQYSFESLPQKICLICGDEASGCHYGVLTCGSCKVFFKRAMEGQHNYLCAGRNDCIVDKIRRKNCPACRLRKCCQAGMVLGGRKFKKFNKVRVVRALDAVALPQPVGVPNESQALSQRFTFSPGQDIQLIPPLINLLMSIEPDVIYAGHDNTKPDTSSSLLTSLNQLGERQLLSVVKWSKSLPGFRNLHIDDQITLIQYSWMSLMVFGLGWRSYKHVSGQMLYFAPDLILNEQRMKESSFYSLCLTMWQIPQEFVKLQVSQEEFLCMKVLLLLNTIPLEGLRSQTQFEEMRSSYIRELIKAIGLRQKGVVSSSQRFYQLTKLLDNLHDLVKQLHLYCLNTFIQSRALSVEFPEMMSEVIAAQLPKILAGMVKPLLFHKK

Mu-type opioid receptor = Mu-type opioid receptor (Homo sapiens, UniProt P35372); experiment: biochemical; format: functional
[5] = biological target: T4, Alpha-1A adrenergic receptor (Homo sapiens, UniProt P35348); format: functional, cell-based
T4 sequence (P35348 whole entry): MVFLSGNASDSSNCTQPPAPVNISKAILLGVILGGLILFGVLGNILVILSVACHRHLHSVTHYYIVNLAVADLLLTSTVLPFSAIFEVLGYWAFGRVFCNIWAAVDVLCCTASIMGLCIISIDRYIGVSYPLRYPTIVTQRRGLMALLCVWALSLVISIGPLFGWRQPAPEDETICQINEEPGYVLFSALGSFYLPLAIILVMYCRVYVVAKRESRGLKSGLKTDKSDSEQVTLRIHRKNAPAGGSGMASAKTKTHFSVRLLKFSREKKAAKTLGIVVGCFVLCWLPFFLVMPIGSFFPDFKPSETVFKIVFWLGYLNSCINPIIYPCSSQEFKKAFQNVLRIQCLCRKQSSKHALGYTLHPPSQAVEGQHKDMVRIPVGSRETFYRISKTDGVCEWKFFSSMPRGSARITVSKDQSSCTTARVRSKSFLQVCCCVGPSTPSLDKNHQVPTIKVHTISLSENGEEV
Also: assay procedure not described here.

Sequence of Cannabinoid receptor 1 (P21554 whole entry): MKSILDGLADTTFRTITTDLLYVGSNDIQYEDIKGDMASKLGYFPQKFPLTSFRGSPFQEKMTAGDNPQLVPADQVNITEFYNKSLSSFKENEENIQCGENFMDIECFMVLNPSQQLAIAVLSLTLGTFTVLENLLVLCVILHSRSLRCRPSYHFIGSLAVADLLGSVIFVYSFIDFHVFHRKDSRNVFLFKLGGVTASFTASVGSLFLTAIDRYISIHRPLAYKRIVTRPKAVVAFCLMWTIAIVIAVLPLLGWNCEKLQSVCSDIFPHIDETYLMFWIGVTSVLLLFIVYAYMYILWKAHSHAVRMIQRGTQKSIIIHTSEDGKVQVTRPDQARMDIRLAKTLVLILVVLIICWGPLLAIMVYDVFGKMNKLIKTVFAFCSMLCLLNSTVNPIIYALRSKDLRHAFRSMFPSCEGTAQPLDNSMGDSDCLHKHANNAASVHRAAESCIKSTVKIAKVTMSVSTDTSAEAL
Sequence of 3',5'-cyclic-AMP phosphodiesterase 4A (P27815 whole entry): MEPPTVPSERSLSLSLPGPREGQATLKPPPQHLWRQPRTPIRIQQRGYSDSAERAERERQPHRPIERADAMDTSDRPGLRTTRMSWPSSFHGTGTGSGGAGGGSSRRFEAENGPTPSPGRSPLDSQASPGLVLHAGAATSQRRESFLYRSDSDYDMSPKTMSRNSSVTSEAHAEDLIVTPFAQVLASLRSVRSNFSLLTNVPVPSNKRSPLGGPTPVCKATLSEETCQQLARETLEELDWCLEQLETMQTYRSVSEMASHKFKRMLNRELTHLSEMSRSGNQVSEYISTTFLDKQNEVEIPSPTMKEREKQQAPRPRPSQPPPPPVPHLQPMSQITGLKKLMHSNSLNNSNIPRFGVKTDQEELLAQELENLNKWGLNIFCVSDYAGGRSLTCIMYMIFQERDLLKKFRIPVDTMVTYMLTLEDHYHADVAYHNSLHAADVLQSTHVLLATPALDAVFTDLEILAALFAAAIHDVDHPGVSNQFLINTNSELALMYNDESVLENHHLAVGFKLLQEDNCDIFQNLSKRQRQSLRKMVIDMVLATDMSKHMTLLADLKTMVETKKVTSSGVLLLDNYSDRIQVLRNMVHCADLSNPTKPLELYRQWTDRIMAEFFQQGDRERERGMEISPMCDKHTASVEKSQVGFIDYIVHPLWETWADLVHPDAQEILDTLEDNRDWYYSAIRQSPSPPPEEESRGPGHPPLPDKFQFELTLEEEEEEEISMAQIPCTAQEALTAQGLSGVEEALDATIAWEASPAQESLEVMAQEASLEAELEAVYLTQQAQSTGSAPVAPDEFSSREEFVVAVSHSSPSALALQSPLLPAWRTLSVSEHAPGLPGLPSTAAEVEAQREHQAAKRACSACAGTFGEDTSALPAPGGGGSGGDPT
Sequence of Mu-type opioid receptor (P35372 whole entry): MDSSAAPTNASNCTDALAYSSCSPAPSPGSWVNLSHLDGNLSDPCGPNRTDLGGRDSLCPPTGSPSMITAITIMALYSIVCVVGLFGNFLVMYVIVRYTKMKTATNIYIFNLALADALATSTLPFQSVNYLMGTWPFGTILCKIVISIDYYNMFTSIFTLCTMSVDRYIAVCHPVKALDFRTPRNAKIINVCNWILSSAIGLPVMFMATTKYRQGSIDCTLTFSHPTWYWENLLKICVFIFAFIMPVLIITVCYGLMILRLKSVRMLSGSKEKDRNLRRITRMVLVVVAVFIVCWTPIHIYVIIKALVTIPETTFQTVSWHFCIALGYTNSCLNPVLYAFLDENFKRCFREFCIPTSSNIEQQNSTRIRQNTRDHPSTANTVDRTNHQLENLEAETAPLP
Sequence of cGMP-inhibited 3',5'-cyclic phosphodiesterase 3A (Q14432 whole entry): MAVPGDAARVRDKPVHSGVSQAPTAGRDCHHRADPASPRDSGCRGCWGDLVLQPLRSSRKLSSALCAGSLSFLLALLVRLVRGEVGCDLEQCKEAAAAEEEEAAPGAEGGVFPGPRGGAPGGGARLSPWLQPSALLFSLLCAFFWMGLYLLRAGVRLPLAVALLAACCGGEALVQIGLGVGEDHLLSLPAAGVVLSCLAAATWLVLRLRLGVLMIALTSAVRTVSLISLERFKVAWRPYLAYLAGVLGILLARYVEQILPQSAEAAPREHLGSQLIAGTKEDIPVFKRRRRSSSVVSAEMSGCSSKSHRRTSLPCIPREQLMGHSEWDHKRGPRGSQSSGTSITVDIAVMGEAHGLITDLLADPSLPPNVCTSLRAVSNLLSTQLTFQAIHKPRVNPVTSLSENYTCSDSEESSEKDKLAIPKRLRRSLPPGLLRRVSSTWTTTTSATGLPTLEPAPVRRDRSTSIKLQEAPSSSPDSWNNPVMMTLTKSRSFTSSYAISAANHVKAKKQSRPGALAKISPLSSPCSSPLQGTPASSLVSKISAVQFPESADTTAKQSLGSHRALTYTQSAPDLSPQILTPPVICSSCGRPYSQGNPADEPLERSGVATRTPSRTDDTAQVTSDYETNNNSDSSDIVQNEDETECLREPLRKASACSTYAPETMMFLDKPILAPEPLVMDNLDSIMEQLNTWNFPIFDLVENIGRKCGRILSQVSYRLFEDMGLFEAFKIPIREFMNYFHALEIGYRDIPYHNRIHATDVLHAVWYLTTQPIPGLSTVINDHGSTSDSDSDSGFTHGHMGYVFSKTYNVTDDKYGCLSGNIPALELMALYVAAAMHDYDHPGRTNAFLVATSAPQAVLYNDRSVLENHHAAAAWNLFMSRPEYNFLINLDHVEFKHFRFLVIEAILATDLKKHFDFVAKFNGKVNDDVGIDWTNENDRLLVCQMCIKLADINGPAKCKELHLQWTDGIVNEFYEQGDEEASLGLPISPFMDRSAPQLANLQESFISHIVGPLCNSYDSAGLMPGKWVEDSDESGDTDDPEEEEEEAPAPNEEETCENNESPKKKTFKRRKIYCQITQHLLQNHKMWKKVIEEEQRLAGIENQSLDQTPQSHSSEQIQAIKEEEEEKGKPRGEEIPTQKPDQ
Sequence of Sodium-dependent noradrenaline transporter (P23975 whole entry): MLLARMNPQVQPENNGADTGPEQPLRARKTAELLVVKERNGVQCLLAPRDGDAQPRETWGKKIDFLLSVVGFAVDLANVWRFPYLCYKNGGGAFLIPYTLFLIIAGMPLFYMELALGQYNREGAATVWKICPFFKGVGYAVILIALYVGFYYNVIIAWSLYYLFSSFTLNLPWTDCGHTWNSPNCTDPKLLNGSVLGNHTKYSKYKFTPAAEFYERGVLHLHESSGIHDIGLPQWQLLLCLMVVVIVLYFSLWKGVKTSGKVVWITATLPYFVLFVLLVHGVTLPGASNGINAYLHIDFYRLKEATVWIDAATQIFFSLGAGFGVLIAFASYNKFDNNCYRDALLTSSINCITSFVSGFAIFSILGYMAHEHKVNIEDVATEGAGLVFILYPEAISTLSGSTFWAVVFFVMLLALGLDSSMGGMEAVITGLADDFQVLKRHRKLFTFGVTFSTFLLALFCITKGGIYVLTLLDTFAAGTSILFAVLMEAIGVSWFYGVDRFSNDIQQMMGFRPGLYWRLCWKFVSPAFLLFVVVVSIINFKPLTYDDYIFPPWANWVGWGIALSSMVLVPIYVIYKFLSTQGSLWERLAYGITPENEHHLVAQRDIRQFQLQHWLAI

SMILES	AC50 [1]	AC50 (Cannabinoid receptor 1)	AC50 (Estrogen receptor)	AC50 [2]	AC50 [3]	AC50 [4]	AC50 (Progesterone receptor)	AC50 (Mu-type opioid receptor)	AC50 [5]
CCOC(=O)[C@H](CCc1ccccc1)N[C@@H](C)C(=O)N1CCC[C@H]1C(=O)O	> 30 µM	> 10 µM							
CC(N)Cc1ccccc1 (stereo not drawn) [AMPHETAMINE]	> 30 µM	> 10 µM	> 30 µM						
COC(=O)N[C@H](C(=O)N[C@@H](Cc1ccccc1)[C@@H](O)CN(Cc1ccc(-c2ccccn2)cc1)NC(=O)[C@@H](NC(=O)OC)C(C)(C)C)C(C)(C)C [ATAZANAVIR]	> 30 µM	> 10 µM	> 30 µM						
COc1cc(Nc2c(C#N)cnc3cc(OCCCN4CCN(C)CC4)c(OC)cc23)c(Cl)cc1Cl [BOSUTINIB]	> 30 µM	> 10 µM	> 30 µM	24.1 µM	> 30 µM	> 30 µM	7.75 µM		
CCC[C@@H]1C[C@@H](C(=O)N[C@@H]([C@H]2O[C@H](SC)[C@H](O)[C@@H](O)[C@H]2O)[C@H](C)Cl)N(C)C1 [CLINDAMYCIN]	> 30 µM	> 10 µM	> 30 µM						
O=C(O)c1cc(-c2ccc(F)cc2F)ccc1O [DIFLUNISAL]		> 10 µM	> 10 µM					> 30 µM	
COc1cc2c(cc1OC)C(=O)C(CC1CCN(Cc3ccccc3)CC1)C2 (stereo not drawn) [DONEPEZIL]	> 30 µM	> 10 µM	> 30 µM	9.13 µM	> 30 µM	> 30 µM	> 30 µM		
COC(=O)[C@@H]1CC2=CC(=O)CC[C@]2(C)[C@@]23O[C@@H]2C[C@@]2(C)[C@@H](CC[C@@]24CCC(=O)O4)[C@H]13 [EPLERENONE]	> 30 µM	> 10 µM	> 30 µM						
NC(N)=Nc1nc(CSCCC(N)=NS(N)(=O)=O)cs1 [FAMOTIDINE]	> 30 µM	> 10 µM	> 30 µM						
C[C@@H]1O[C@@H]1P(=O)(O)O [FOSFOMYCIN]		> 10 µM							
NS(=O)(=O)c1cc2c(cc1Cl)NCNS2(=O)=O [HYDROCHLOROTHIAZIDE]	> 30 µM	> 10 µM	> 30 µM						
NC[C@H]1O[C@H](O[C@H]2[C@H](O)[C@@H](O[C@H]3O[C@H](CO)[C@@H](O)[C@H](N)[C@H]3O)[C@H](N)C[C@@H]2N)[C@H](O)[C@@H](O)[C@@H]1O [KANAMYCIN]		> 10 µM	> 10 µM					> 30 µM	
CN1C(=O)CC(C)(c2ccccc2)C1=O (stereo not drawn) [METHSUXIMIDE]		> 10 µM	> 10 µM					> 30 µM	
C[C@H]1C[C@@H]2[C@H]([C@@H](O)C[C@@]3(C)[C@H]2CC[C@]3(O)C(=O)CO)[C@@]2(C)C=CC(=O)C=C12 [METHYLPREDNISOLONE]		> 10 µM						> 30 µM	
CCN(CC)CCNC(=O)c1cc(Cl)c(N)cc1OC [METOCLOPRAMIDE]	> 30 µM	> 10 µM	> 30 µM						
CC(C)(C(=O)c1cccnc1)c1cccnc1 [METYRAPONE]		> 10 µM	> 10 µM						
OCCN1CCN(CCCN2c3ccccc3C=Cc3ccccc32)CC1 [OPIPRAMOL]	> 30 µM		> 30 µM	6.62 µM	> 30 µM	> 30 µM	> 30 µM	15 µM	1.07 µM
CC(N/C(=N\C#N)Nc1ccncc1)C(C)(C)C (stereo not drawn) [PINACIDIL ANHYDROUS]				> 30 µM	> 30 µM	> 30 µM	> 30 µM		> 30 µM
CCc1ccc(CCOc2ccc(CC3SC(=O)NC3=O)cc2)nc1 (stereo not drawn) [PIOGLITAZONE]	> 30 µM		> 30 µM	> 30 µM	> 10 µM	> 30 µM	> 30 µM	> 30 µM	> 10 µM
CC[C@H](C)C(=O)O[C@H]1C[C@H](O)C=C2C=C[C@H](C)[C@H](CC[C@@H](O)C[C@@H](O)CC(=O)O)[C@H]21 [PRAVASTATIN]		> 10 µM							
CC(O)CO (stereo not drawn) [PROPYLENE GLYCOL]				> 30 µM	> 30 µM	> 30 µM	> 30 µM		> 30 µM
CN(C)C(=O)Oc1ccc[n+](C)c1 [PYRIDOSTIGMINE]				> 30 µM	> 30 µM	> 30 µM	> 30 µM		> 30 µM
O=C(NC[C@H]1CN(c2ccc(N3CCOCC3=O)cc2)C(=O)O1)c1ccc(Cl)s1 [RIVAROXABAN]				> 30 µM	> 30 µM	> 30 µM	> 30 µM		> 3 µM
CC(C)OC(=O)[C@H](C)N[P@](=O)(OC[C@H]1O[C@@H](n2ccc(=O)[nH]c2=O)[C@](C)(F)[C@@H]1O)Oc1ccccc1 [SOFOSBUVIR]				> 30 µM	> 30 µM	> 30 µM	> 30 µM		> 30 µM
CC(C(=O)O)c1ccc(C(=O)c2cccs2)cc1 (stereo not drawn) [SUPROFEN]		> 10 µM							
CS(=O)(=O)c1ccc([C@@H](O)[C@@H](CO)NC(=O)C(Cl)Cl)cc1 [THIAMPHENICOL]	> 30 µM		> 30 µM	> 30 µM	> 30 µM	> 30 µM	> 30 µM	> 30 µM	> 30 µM
Cc1ccc(O)c2ncccc12 [TILIQUINOL]				6.22 µM	> 30 µM	> 30 µM	> 30 µM		> 30 µM
Cc1ccc(C(=O)c2cc(O)c(O)c([N+](=O)[O-])c2)cc1 [TOLCAPONE]		> 10 µM							
CC(=O)OC[C@H]1O[C@@H](n2ccc(=O)[nH]c2=O)[C@H](OC(C)=O)[C@@H]1OC(C)=O [URIDINE TRIACETATE]				> 30 µM	> 30 µM	> 30 µM	> 30 µM		> 30 µM
CCOC(=O)N[C@@H]1CC[C@@H]2[C@@H](C1)C[C@H]1C(=O)O[C@H](C)[C@H]1[C@H]2/C=C/c1ccc(-c2cccc(F)c2)cn1 [VORAPAXAR]				4.56 µM	> 30 µM	> 30 µM	> 30 µM		> 30 µM

Reference: ChEMBL document CHEMBL5291721, “A preclinical secondary pharmacology resource illuminates target-adverse drug reaction associations of marketed drugs” (Nat Commun, 2023)
